In brackets after ≈: the same amount, converted by molar mass. Positions of bridges follow the written chain, without caps; N, C: chain ends. Non-standard residues stand in square brackets, D forms with d. Residues, ends and D or L forms follow the SMILES beside them. *: point of attachment. Benzoyl(3-CF3) = O=C(c1cccc(C(F)(F)F)c1)*; Benzoyl(4-Cl) = O=C(c1ccc(Cl)cc1)*; Butanoyl(4-Ph) = O=C(CCCc1ccccc1)*; X12 = O=C(c1ccc(C(F)(F)F)c(F)c1)*; X11 = Cc1ccc(C(=O)*)cc1Cl; Octanoyl = CCCCCCCC(=O)*; Dab = NCC[C@H](N)C(=O)O; Abu = CC[C@H](N)C(=O)O; Dap = NC[C@H](N)C(=O)O
How the values were obtained:
A. baumannii ATCC 19606 = assay: In vivo efficacy in mouse blood infection model (neutropenic Swiss mice); conditions: compound, free base 4 mg/kg intravenously 2 h after inoculation, blood at 4 h
Method in brief: (§1)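 Activity expressed as Δlog10 CFU/mL blood, treated minus saline control, 4 h after a single 4 mg/kg (free base) i.v. dose given 2 h post-infection. Bloodstream infection from i.v. early log-phase inoculum in Swiss mice made neutropenic by i.p. cyclophosphamide on days −4 (150 mg/kg) and −1 (100 mg/kg).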

Enterobacter cloacae = system: Enterobacter cloacae
Method in brief: (§2)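 Using polymyxin B sulphate as comparator control, the trifluoroacetate-salt lipopeptides were assayed in CAMHB by broth microdilution to CLSI M100-S18, and MICs recorded.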

Acinetobacter baumannii = system: Acinetobacter baumannii
Method in brief: as §2

Pseudomonas aeruginosa = system: Pseudomonas aeruginosa
Method in brief: as §2

Klebsiella pneumoniae = system: Klebsiella pneumoniae
Method in brief: as §2

P. aeruginosa ATCC 27853 = assay: In vivo efficacy in mouse blood infection model (neutropenic Swiss mice); conditions: compound, free base 4 mg/kg intravenously 2 h after inoculation, blood at 4 h
Method in brief: as §1

Compound | Δ log (Treated-Control at 4 h) (A. baumannii ATCC 19606) [log10 CFU/mL] | Minimum inhibitory concentration, Ec FADDI-EC001 (Enterobacter cloacae) [µg/mL] | Minimum inhibitory concentration, Ec FADDI-EC003 (Enterobacter cloacae) [µg/mL] | Minimum inhibitory concentration, Ec FADDI-EC006 (Enterobacter cloacae) [µg/mL] | MIC (Acinetobacter baumannii) [µg/mL] | Minimum inhibitory concentration, Ab A ATCC 17978 (Acinetobacter baumannii) [µg/mL] | Minimum inhibitory concentration, Ab ATCC 19606 (Acinetobacter baumannii) [µg/mL] | Minimum inhibitory concentration, Ab FADDI-AB034 (Acinetobacter baumannii) [µg/mL] | MIC (Pseudomonas aeruginosa) [µg/mL] | Minimum inhibitory concentration, Pa ATCC 27853 (Pseudomonas aeruginosa) [µg/mL] | Minimum inhibitory concentration, Pa FADDI-PA022 (Pseudomonas aeruginosa) [µg/mL] | Minimum inhibitory concentration, Pa FADDI-PA025 (Pseudomonas aeruginosa) [µg/mL] | MIC (Klebsiella pneumoniae) [µg/mL] | Δ log (Treated-Control at 4 h) (P. aeruginosa ATCC 27853) [log10 CFU/mL] | also measured
CC[C@@H]1NC(=O)[C@@H](CC(C)C)NC(=O)[C@H](CCN)NC(=O)[C@@H](NC(=O)[C@@H](CO)NC(=O)[C@@H](NC(=O)[C@H](CCN)NC(=O)c2cccc(C(F)(F)F)c2)[C@@H](C)O)CCNC(=O)[C@H]([C@@H](C)O)NC(=O)[C@H](CCN)NC(=O)[C@H](CCN)NC1=O [Compound 18] ({Benzoyl(3-CF3)}-[Dab]T[dS][Dab][Dab][dL][Abu][Dab][Dab]T; lactam 4-C) | −1.57 | 1 (≈ 0.862 µM) | 0.5 (≈ 0.431 µM) | 0.5 (≈ 0.431 µM) | 0.5 (≈ 0.431 µM) | 0.5 (≈ 0.431 µM) | 0.5 (≈ 0.431 µM) | 0.5 (≈ 0.431 µM) | 8 (≈ 6.89 µM) | 8 (≈ 6.89 µM) | 8 (≈ 6.89 µM) | 2 (≈ 1.72 µM) | 0.25 (≈ 0.215 µM) | – | –
CC(C)C[C@H]1NC(=O)[C@H](CCN)NC(=O)[C@@H](NC(=O)[C@@H](CO)NC(=O)[C@@H](NC(=O)[C@H](CCN)NC(=O)c2cccc(C(F)(F)F)c2)[C@@H](C)O)CCNC(=O)[C@H]([C@@H](C)O)NC(=O)[C@H](CCN)NC(=O)[C@H](CCN)NC(=O)[C@H]([C@@H](C)O)NC1=O [Compound 19] ({Benzoyl(3-CF3)}-[Dab]T[dS][Dab][Dab][dL]T[Dab][Dab]T; lactam 4-C) | −1.58 | 1 (≈ 0.85 µM) | 0.5 (≈ 0.425 µM) | 0.5 (≈ 0.425 µM) | 2 (≈ 1.7 µM) | 0.5 (≈ 0.425 µM) | 2 (≈ 1.7 µM) | 4 (≈ 3.4 µM) | 32 (≈ 27.2 µM) | 32 (≈ 27.2 µM) | 16 (≈ 13.6 µM) | >32 | 0.5 (≈ 0.425 µM) | – | –
CCCCCCCC(=O)N[C@@H](CCN)C(=O)N[C@H](C(=O)N[C@@H](CCN)C(=O)N[C@H]1CCNC(=O)[C@H]([C@@H](C)O)NC(=O)[C@H](CCN)NC(=O)[C@H](CCN)NC(=O)[C@H](C)NC(=O)[C@@H](CC(C)C)NC(=O)[C@H](CCN)NC1=O)[C@@H](C)O [Compound 21] (Octanoyl-[Dab]T[Dab][Dab][Dab][dL]A[Dab][Dab]T; lactam 4-C) | −2.43 | 0.125 (≈ 0.112 µM) | 0.125 (≈ 0.112 µM) | 0.125 (≈ 0.112 µM) | 1 (≈ 0.898 µM) | 2 (≈ 1.8 µM) | 1 (≈ 0.898 µM) | 0.5 (≈ 0.449 µM) | 0.5 (≈ 0.449 µM) | 0.5 (≈ 0.449 µM) | 0.5 (≈ 0.449 µM) | >32 | 0.25 (≈ 0.225 µM) | −2.26 | –
CC[C@@H]1NC(=O)[C@@H](CC(C)C)NC(=O)[C@H](CCN)NC(=O)[C@@H](NC(=O)[C@H](CN)NC(=O)[C@@H](NC(=O)[C@H](CCN)NC(=O)c2ccc(Cl)cc2)[C@@H](C)O)CCNC(=O)[C@H]([C@@H](C)O)NC(=O)[C@H](CCN)NC(=O)[C@H](CCN)NC1=O [Compound 94] ({Benzoyl(4-Cl)}-[Dab]T[Dap][Dab][Dab][dL][Abu][Dab][Dab]T; lactam 4-C) | −1.26 | 0.25 (≈ 0.222 µM) | 0.25 (≈ 0.222 µM) | 0.5 (≈ 0.444 µM) | 1 (≈ 0.888 µM) | 0.5 (≈ 0.444 µM) | 1 (≈ 0.888 µM) | 0.25 (≈ 0.222 µM) | 0.5 (≈ 0.444 µM) | 0.5 (≈ 0.444 µM) | 0.5 (≈ 0.444 µM) | 2 (≈ 1.78 µM) | 0.25 (≈ 0.222 µM) | −3.23 | –
CC[C@@H]1NC(=O)[C@@H](CC(C)C)NC(=O)[C@H](CCN)NC(=O)[C@@H](NC(=O)[C@H](CN)NC(=O)[C@@H](NC(=O)[C@H](CCN)NC(=O)c2ccc(C)c(Cl)c2)[C@@H](C)O)CCNC(=O)[C@H]([C@@H](C)O)NC(=O)[C@H](CCN)NC(=O)[C@H](CCN)NC1=O [Compound 105] (X11-[Dab]T[Dap][Dab][Dab][dL][Abu][Dab][Dab]T; lactam 4-C) | −1.31 | 1 (≈ 0.877 µM) | 0.5 (≈ 0.439 µM) | 1 (≈ 0.877 µM) | 0.5 (≈ 0.439 µM) | 0.5 (≈ 0.439 µM) | 0.5 (≈ 0.439 µM) | 0.25 (≈ 0.219 µM) | 0.5 (≈ 0.439 µM) | 0.5 (≈ 0.439 µM) | 1 (≈ 0.877 µM) | 2 (≈ 1.75 µM) | 0.25 (≈ 0.219 µM) | −2.54 | –
CC[C@@H]1NC(=O)[C@@H](CC(C)C)NC(=O)[C@H](CCN)NC(=O)[C@@H](NC(=O)[C@H](CN)NC(=O)[C@@H](NC(=O)[C@H](CCN)NC(=O)c2ccc(C(F)(F)F)c(F)c2)[C@@H](C)O)CCNC(=O)[C@H]([C@@H](C)O)NC(=O)[C@H](CCN)NC(=O)[C@H](CCN)NC1=O [Compound 111] (X12-[Dab]T[Dap][Dab][Dab][dL][Abu][Dab][Dab]T; lactam 4-C) | −1.66 | 0.5 (≈ 0.425 µM) | 0.25 (≈ 0.212 µM) | 0.25 (≈ 0.212 µM) | 0.5 (≈ 0.425 µM) | 0.5 (≈ 0.425 µM) | 0.5 (≈ 0.425 µM) | 0.25 (≈ 0.212 µM) | 1 (≈ 0.849 µM) | 0.5 (≈ 0.425 µM) | 1 (≈ 0.849 µM) | 1 (≈ 0.849 µM) | 0.25 (≈ 0.212 µM) | −3.65 | –
CC(C)C[C@H]1NC(=O)[C@H](CCN)NC(=O)[C@@H](NC(=O)[C@H](CN)NC(=O)[C@@H](NC(=O)[C@H](CCN)NC(=O)CCCc2ccccc2)[C@@H](C)O)CCNC(=O)[C@H]([C@@H](C)O)NC(=O)[C@H](CCN)NC(=O)[C@H](CCN)NC(=O)[C@H](C)NC1=O [Compound 146] ({Butanoyl(4-Ph)}-[Dab]T[Dap][Dab][Dab][dL]A[Dab][Dab]T; lactam 4-C) | – | – | – | – | 4 (≈ 3.57 µM) | – | – | – | 0.5 (≈ 0.447 µM) | – | – | – | 0.5 (≈ 0.447 µM) | −3.63 | Minimum inhibitory concentration (MIC), Ec FADDI-EC001 (Enterobacter cloacae): 0.5 µg/mL (≈ 0.447 µM); Minimum inhibitory concentration (MIC), Ec FADDI-EC003 (Enterobacter cloacae): 0.25 µg/mL (≈ 0.223 µM); Minimum inhibitory concentration (MIC), Ec FADDI-EC006 (Enterobacter cloacae): 0.5 µg/mL (≈ 0.447 µM); Minimum inhibitory concentration (MIC), Ab ATCC 17978 (Acinetobacter baumannii): 1 µg/mL (≈ 0.893 µM); Minimum inhibitory concentration (MIC), Ab ATCC 19606 (Acinetobacter baumannii): 4 µg/mL (≈ 3.57 µM); Minimum inhibitory concentration (MIC), Ab FADDI-AB034 (Acinetobacter baumannii): 2 µg/mL (≈ 1.79 µM); Minimum inhibitory concentration (MIC), Pa ATCC 27853 (Pseudomonas aeruginosa): 0.5 µg/mL (≈ 0.447 µM); Minimum inhibitory concentration (MIC), Pa FADDI-PA022 (Pseudomonas aeruginosa): 0.5 µg/mL (≈ 0.447 µM); Minimum inhibitory concentration (MIC), Pa FADDI-PA025 (Pseudomonas aeruginosa): >32 µg/mL

From patent USRE48335E1, “Polymyxin derivatives as antimicrobial compounds” (priority 2014, dated 2020)
